The subject of one experiment is L. lactis HP. As to the kind of experiment: Broth MIC, Gram positive. Type of experiment: cell-based. Conditions: broth microtitre, BSA pre-treated plates, 10^5 cfu ml^−1, 2-fold dilutions from 500 nM, 16 h, purified peptide, mean of triplicate assays. The method, then: (§1) Minimum inhibitory concentration determinations for Gram positive organisms were carried out in triplicate in microtitre plates (Sarstedt). 96 well microtitre plates were pre-treated with bovine serum albumin (BSA) prior to addition of the peptides. Briefly, to each well of the microtitre plate 200 µL of phosphate buffered saline (PBS) containing 1% (w/v) bovine serum albumin (PBS/BSA) was added and incubated at 37°C for 30 min. The wells were washed with 200 µL PBS and allowed to dry. Target strains were grown overnight in the appropriate conditions and medium, subcultured into fresh broth and allowed to grow to an OD600 of ∼0.5, diluted to a final concentration of 10^5 cfu ml^−1 in a volume of 0.2 ml. Wild type nisin and nisin mutant peptides were adjusted to a 10 µM (S. mitis, B. cereus), 7.5 µM (L. monocytogenes), 5 µM (hVISA) 2.5 µM (MRSA, E. durans), or 500 nM (L. lactis strains) starting concentration and 2-fold serial dilutions of each peptide were added to the target strain.

The subject of the next experiment is L. lactis MG1363. As to the kind of experiment: Broth MIC, Gram positive. It is filed as cell-based. As to conditions: broth microtitre, BSA pre-treated plates, 10^5 cfu ml^−1, 2-fold dilutions from 500 nM, 16 h, purified peptide, mean of triplicate assays. The procedure: as §1
Another experiment concerns L. monocytogenes 10403S. As to the kind of experiment: Broth MIC, Gram positive. Type of experiment: cell-based. As to conditions: broth microtitre, BSA pre-treated plates, 10^5 cfu ml^−1, 2-fold dilutions from 7.5 µM, 16 h 37°C, purified peptide, mean of triplicate assays. The method, then:
as §1

In a further experiment the test system is L. monocytogenes LO28. As to the kind of experiment: Broth MIC, Gram positive. Type of experiment: cell-based. As to conditions: broth microtitre, BSA pre-treated plates, 10^5 cfu ml^−1, 2-fold dilutions from 7.5 µM, 16 h 37°C, purified peptide, mean of triplicate assays. The procedure:
as §1

In a further experiment the test system is S. aureus RF122. In words: Broth MIC, Gram positive. It is filed as cell-based. Conditions: broth microtitre, BSA pre-treated plates, 10^5 cfu ml^−1, 2-fold dilutions, 16 h 37°C, purified peptide, mean of triplicate assays. The method, then: as §1
Experiment [1] deals with ST 528 (Methicillin resistant S. aureus). As to the kind of experiment: Broth MIC, Gram positive. It is filed as cell-based. As to conditions: broth microtitre, BSA pre-treated plates, 10^5 cfu ml^−1, 2-fold dilutions from 2.5 µM, 16 h 37°C, purified peptide, mean of triplicate assays. The procedure: as §1
Experiment [2] relates to ST 530 (Methicillin resistant S. aureus). In words: Broth MIC, Gram positive. Type of experiment: cell-based. As to conditions: broth microtitre, BSA pre-treated plates, 10^5 cfu ml^−1, 2-fold dilutions from 2.5 µM, 16 h 37°C, purified peptide, mean of triplicate assays. The method, then: as §1
The test system of experiment [3] is hVISA 32679 (heterogenous Vancomycin-intermediate S. aureus). As to the kind of experiment: Broth MIC, Gram positive. It is filed as cell-based. As to conditions: broth microtitre, BSA pre-treated plates, 10^5 cfu ml^−1, 2-fold dilutions from 5 µM, 16 h 37°C, purified peptide, mean of triplicate assays. The procedure:
as §1

Another experiment concerns E. durans 5133. In words: Broth MIC, Gram positive. Type of experiment: cell-based, Enterococcus durans. As to conditions: broth microtitre, BSA pre-treated plates, 10^5 cfu ml^−1, 2-fold dilutions from 2.5 µM, 16 h 37°C, purified peptide, mean of triplicate assays. The procedure: as §1
Experiment [4] concerns C. sakazakii DPC 6440. In words: Agarose gel diffusion assay, purified peptide. It is filed as cell-based, Cronobacter sakazakii. As to conditions: purified peptide 60 µM. The method, then:
(§2) Agarose-based deferred antagonism assays were carried out as follows: GM17/LB (0.03%) underlay was prepared with 10 mM sodium phosphate buffer (SPB) at pH 7.4 to which was added agarose (1% w/v agarose), autoclaved and cooled to 50°C. Bacteria grown to mid-logarithmic phase were harvested by centrifugation and washed with 10 mM SPB at pH 7.4. Bacteria were then added to 15 mls cooled underlay medium to reach a concentration of 2×10^7 colony-forming units (CFU)/mL. The inoculated medium was rapidly transferred into sterile Petri plates, allowed to solidify and dried. Wells (4.6 mm in diameter) were then made in the seeded plates. 10 µl volumes of cell-free supernatant from overnight nisin derivative producing cultures or resuspended purified peptides were then added to the wells and the plates incubated at 30°C (L. lactis) or 37°C (Gram positive strains) or RT (Gram negative strains) for 3 hours. Polymyxin B (Sigma Aldrich) was used at a concentration of 20 µg/ml. The plates were then overlaid with 15 mls of autoclaved double strength GM17 (L. lactis) or LB (Gram negatives) agarose (1% w/v agarose) overlay medium precooled to 50°C. The plates were then incubated overnight at the relevant temperature.

The test system of experiment [5] is E. coli 0157-H7. As to the kind of experiment: Agarose gel diffusion assay, purified peptide. It is filed as cell-based. As to conditions: purified peptide 60 µM. The method, then:
as §2

In experiment [6] the test system is Salmonella enterica serovar Typhimurium UK1. In words: Agarose gel diffusion assay, purified peptide. It is filed as cell-based. As to conditions: purified peptide 60 µM. The method, then:
as §2

Experiment [7] deals with E. coli 0157-H7. In words: Broth MIC, Gram negative. Type of experiment: cell-based. Conditions: cells washed in 10 mM SPB pH 7.4, 2×10^5 CFU/mL, 2 h RT with peptide, then double strength LB, RT overnight, mean of triplicate assays. The method, then:
(§3) Minimum inhibitory concentration determinations for Gram negative strains were carried out in triplicate in 96 well microtitre plates. Briefly, bacteria (E. coli, C. sakazakii and Salmonella) grown to mid-logarithmic phase were harvested by centrifugation, washed with 10 mM SPB at pH 7.4, and diluted to 2×10^5 colony-forming units (CFU)/mL in SPB. Nisin and nisin derivative peptides were resuspended in sterile HPLC water and 50 µL aliquots were added to wells containing 50 µL of 2×10^5 CFU of bacteria. Plates were incubated at RT for two hours with agitation. Double strength Luria–Bertani (LB) broth (100 µL) was added and the plates were incubated at RT overnight, the MIC was taken as the lowest concentration at which growth was inhibited.

Experiment [8] has as its system Salmonella enterica serovar Typhimurium UK1. In words: Broth MIC, Gram negative. It is filed as cell-based. Conditions: cells washed in 10 mM SPB pH 7.4, 2×10^5 CFU/mL, 2 h RT with peptide, then double strength LB, RT overnight, mean of triplicate assays. The procedure: as §3
Experiment [9] deals with C. sakazakii DPC 6440. In words: Agarose gel diffusion assay, peptide alone or with polymyxin B nonapeptide (PMBN). It is filed as cell-based, Cronobacter sakazakii. The method, then: as §2
Polymyxin B (PMB) is a cyclic lipodecapaptide produced by bacteria of the genus Paenibacillus that acts primarily on the Gram negative cell wall, leading to rapid permeability changes in the cytoplasmic membrane and ultimately cell death. […] To that end, C. sakazakii DPC 6440 cells were treated with purified nisin A, S29G and S29A peptides alone (30 µM) or in combination with PMBN at a concentration of 20 µg/ml and determined the antimicrobial activity by agarose gel diffusion assay (Fig. 5). […] When used in combination with PMBN, a substantial synergistic effect was clearly evident (Fig. 5) but in this instance no significant difference in efficacy was observed between nisin A or either of the derivatives S29A or S29G.

“And” between values parts separate entries of the source, which are not always exact repeats. Equal entries are not always repeated. Ends that are not written are not given here.

The term MIC denotes the lowest concentration found to suppress growth. With “S29G: bioengineered nisin A derivative with a serine to glycine change at position 29 (ITSISLCTPGCKTGALMGCNMKTATCHCGIHVSK; thioether (positions not given here); not fully specified (residues 2, 5, 33, bridges); UniProt P13068 24-57, looked up, variant S29G)”, the MIC with L. lactis HP is 0.1 mg/L and 0.031 µM; in the experiment with L. lactis MG1363 it was 0.4 mg/L and 0.125 µM; with L. monocytogenes 10403S, 6.28 mg/L and 1.875 µM; with L. monocytogenes LO28, 6.28 mg/L and 1.875 µM; with S. aureus RF122, 0.52 mg/L and 0.156 µM; in [1] it was 0.26 mg/L and 0.078 µM. The MIC was 0.26 mg/L and 0.078 µM in experiment [2]; 2 mg/L and 0.625 µM in experiment [3]; 0.26 mg/L and 0.078 µM in the experiment with E. durans 5133; 25.14 mg/L and 7.5 µM in the experiment on E. coli 0157-H7 [7]; 50.28 mg/L and 15 µM in experiment [8]. Also, the “Zone of inhibition, agarose gel diffusion” value in the experiment on C. sakazakii DPC 6440 [4] (C. sakazakii DPC 6440, mean of triplicate assays) was found to be 10.79±0.16 mm; in the experiment on E. coli 0157-H7 [5] (E. coli 0157-H7, mean of triplicate assays), 11.10±0.05 mm; in experiment [6] (Salmonella Typhimurium UK1, mean of triplicate assays) it was 10.94±0.24 mm. For the same substance, the “Zone as % wt” value with C. sakazakii DPC 6440 [4] (C. sakazakii DPC 6440, relative to nisin A) is reported as 110 % wt; with E. coli 0157-H7 [5] (E. coli 0157-H7, relative to nisin A) it was 113 % wt; in [6] (Salmonella Typhimurium UK1, relative to nisin A) it was 111 % wt. In addition, in the experiment with C. sakazakii DPC 6440 [9] (purified peptide 30 µM alone), the “Total area of inhibitory zone, peptide alone” value was determined as 48.2±0.7 mm^2. Further, the “Total area of inhibitory zone, peptide + PMBN” value in the experiment with C. sakazakii DPC 6440 [9] (purified peptide 30 µM in combination with polymyxin B nonapeptide (PMBN) 20 µg/ml) came to 118.6±5.0 mm^2.

Values taken from PMC3466204 (PLoS ONE, 2012).
